The text below walks through data of publication PMC7961380, “A Systematic Study of the In Vitro Pharmacokinetics and Estimated Human In Vivo Clearance of Indole and Indazole-3-Carboxamide Synthetic Cannabinoid Receptor Agonists Detected on the Illicit Drug Market” (Molecules, 2021).

For data set [1] the following is noted: HLM, ref 14 (THJ-018, THJ-2201), 15 (NNEI, MN-18), 106 (NM-2201), 107 (BIM-2201), 108 (STS-135), 16 (AB-PINACA, 5F-AB-PINACA), 54 (5F-MDMB-PINACA), 69 (AB-FUBINACA), 17 (ADB-FUBINACA), 97 (FDU-PB-22, FUB-PB-22), cited from earlier work; for CLint micr / t1/2: 95 (Cumyl-PICA, 5F-Cumyl-PICA), 109 (5F-APP-PICA, 5F-APP-PINACA; for CLint micr: 73 (5F-AMB-PINACA); for t1/2 / CLint: 57 (AMB-4en-PICA); for t1/2: 73 (AMB-PINACA, 5F-AMB-PINACA).

Data set [2] can be described thus: Metabolic stability, pooled human liver microsome incubations. Here is the method: Total incubation volume was 500 µL. Procedure: Test compound working solutions (50 µM in potassium phosphate buffer (pH 7.4)) were prepared (<1% DMSO). pHLM were thawed and diluted in potassium phosphate buffer (pH 7.4). […] Reactions were quenched in 200 µL ACN spiked with donepezil (IS, 50 ng mL^−1). […] Samples were analysed by UPLC-MS/MS in a 96 deep-well 2 mL plate. Each SCRA was incubated at least in triplicate but additional incubations were carried out across a number of analytical batches, giving greater replication and a greater understanding of system variability. Microsomal scaling factors used for human liver microsome incubations in the literature vary. Intrinsic clearance and predicted in vivo clearance rates calculated using alternative scaling factors found in the literature is provided in Section S6 of the supplementary information, to aid comparison of data between publications.
Equations used for in vitro intrinsic clearance calculation and human in vivo clearance […]
The equations used for in vitro intrinsic clearance calculation and human in vivo clearance estimation […]
Microsomal clearance (HLM incubations) in mL min-1 mg microsomal protein-1 [3]
Intrinsic clearance (whole-liver dimensions) (HLM incubations) in mL min-1 kg-1 [3] CL = k x V x [Liver](g) x SF Eqn. 7 […]
mg g microsomal protein-1 [7]
Intrinsic clearance (whole-liver dimensions) (HHep incubations) in mL min-1 kg-1 [4] CL = k x V x hepatocytes/g liver x [Liver](g) Eqn. 8 […]
Where: hepatocytes/g liver = 107x10^6 cells/g liver
Hepatic clearance in mL min-1 kg-1 [3]
[…] Eqn. 9
Where: Q = hepatic blood flow, 21 mL min-1 kg-1 [9]; fu = fraction unbound (plasma); CLint = […]
Estimated human hepatic extraction ratio [5]
Intrinsic clearance data – pooled human liver microsome incubations […]
table S4-28. Intrinsic clearance and predicted in vivo data calculated using alternative microsomal scaling factors found in the literature – 32 [10] and 45 [11] mg microsomal protein per gram liver – are provided in tables S29 and S30, respectively.
A general note: Microsomes from liver hold many membrane-bound enzymes, among them those of drug oxidation.

Data set [3] deals with pooled human cryopreserved hepatocytes (pHHeps). The data set can be described thus: Metabolic stability, pooled human cryopreserved hepatocyte incubations.
Data set [4] in a line: Plasma protein binding by equilibrium dialysis. It counts as in vitro ADME, human. The following applies: human, pooled human plasma, pH 7.4, equilibrium dialysis 5 h, 37 °C, 10 µg mL^−1; read-out: PPB (%) (converted). How it is done: Plasma protein binding was assessed by equilibrium dialysis in a 96-well dialysis block (HTDialysis, Ledyard, CT, USA). Dialysis membranes (12–14 kDa) were soaked in deionised water for at least 60 min. Membranes were soaked overnight at 4 °C in ethanol:water 20:80% v/v and then rinsed with deionised water immediately prior to use. […] Spiked plasma (150 µL) was dialysed against isotonic phosphate buffer (pH 7.4) (150 µL) for 5 h at 37 °C with shaking at 100 rpm. Thermal degradation controls for each test compound were kept at 37 °C and 4 °C. Blank control plasma and buffer were included in the incubation. Following incubation, dialysed plasma samples and thermal degradation controls (50 µL) were added to drug-free buffer (50 µL), and dialysed buffer samples (50 µL) were added to drug-free plasma (50 µL). […] Supernatant (150 µL) was added to 50 µL deionised water and samples were analysed by UPLC-MS/MS as described above. Dialysed buffer from each well was tested for protein contamination using BCA protein assay reagent to determine whether membranes had been compromised.
Bu = Analyte/IS ratio determined in buffer side (2) Fraction unbound, fu=(100−% bound)/100
On the technique in general: In equilibrium dialysis free small molecules cross a membrane that holds back macromolecules.

[5] abbreviates: pHLM, scaling factor 32 mg microsomal protein per gram liver.
The mark [6] stands for this setting: pHLM, scaling factor 45 mg microsomal protein per gram liver.
Where [7] appears, read: pHHeps, 99x10^6 hepatocytes per gram liver.

For the compound `NC(=O)[C@H](Cc1ccccc1)NC(=O)c1nn(CC2CCCCC2)c2ccccc12`, in data set [1], the CLint micr is 133 µL/min/mg and the t1/2 is listed as 5.2 min.
With `NC(=O)[C@H](Cc1ccccc1)NC(=O)c1nn(CCCCCF)c2ccccc12` [5F-APP-PINACA], in data set [1], the CLint micr is 202 µL/min/mg and the t1/2 is listed as 3.4 min.
In the case of `CC(C)(NC(=O)c1cn(CCCCCF)c2ccccc12)c1ccccc1` [5F-Cumyl-PICA], in data set [1], the CLint micr was 390 µL/min/mg and the t1/2 was 1.77 min.
`CC(C)[C@H](NC(=O)c1nn(CC2CCCCC2)c2ccccc12)C(N)=O` [(S)-AB-[…] (11)] [N-[1-amino-3-methyl-1-oxobutan-2-yl]-1-(cyclohexylmethyl)-1H-indazole-3-carboxamide]: the “Predicted In Vivo Hepatic Clearance, CLH” value was 1.77 ± 0.17 mL/min/kg in data set [2] (from pHLM CLint, well-stirred model with plasma fu, Q 21 mL min^−1 kg^−1) and 4.52 ± 1.12 mL/min/kg in data set [3] (from pHHeps CLint, well-stirred model with plasma fu, Q 21 mL min^−1 kg^−1). For the same compound, the “Hepatic extraction ratio, EH” value in data set [2] (from pHLM incubations) was determined as 0.08 ± 0.008; in data set [2] (setting [5]) it was 0.05 ± 0.005; in data set [2] (setting [6]), 0.08 ± 0.007; in data set [3] (from pHHeps incubations) it was 0.22 ± 0.053; in data set [3] (setting [7]) it was 0.20 ± 0.051. In addition, the “% parent compound remaining, Average” value in data set [2] (pHLM, 3 min) was 76.2%; in data set [2] (pHLM, 6 min), 76.7%; in data set [2] (pHLM, 9 min), 70.6%; in data set [2] (pHLM, 15 min), 61.7%; in data set [2] (pHLM, 30 min), 45.8%; in data set [3] (pHHeps, 3 min), 96.9%. The “% parent compound remaining, Average” value in data set [3] (pHHeps, 6 min) is reported as 85.7%; in data set [3] (pHHeps, 9 min), 81.8%; in data set [3] (pHHeps, 15 min) it was 88.6%; in data set [3] (pHHeps, 30 min), 65.5%; in data set [3] (pHHeps, 45 min), 63.2%; in data set [3] (pHHeps, 60 min) it was 53.4%. The “Microsomal Intrinsic Clearance, CLint micr” value in data set [2] (pHLM, n ≥ 3 ± SD) was 0.051 ± 0.005 mL min^−1 mg Microsomal Protein^−1. Further, the figures for the “Predicted in vivo hepatic clearance, CLH” value in data set [2] (setting [5]), in data set [2] (setting [6]) and in data set [3] (setting [7]) were 1.12 ± 0.11 mL/min/kg, 1.54 ± 0.15 mL/min/kg and 4.26 ± 1.08 mL/min/kg, respectively.
Turning to `CCCCCn1nc(C(=O)N[C@H](C(N)=O)C(C)C)c2ccccc21` [AB-PINACA], in data set [1], the CLint micr was 37 µL/min/mg, the t1/2 is 18.7 min and the CLint is 35 mL/min/kg.
In the case of `CCCCCn1nc(C(=O)N[C@H](C(=O)OC)C(C)C)c2ccccc21` [AMB-PINACA, methyl (1-pentyl-1H-indazole-3-carbonyl)valinate], the t1/2 in data set [1] is on record as 1.1 min.
As for `O=C(c1cccc2ccccc12)c1nc2ccccc2n1CCCCCF` [BIM-2201], in data set [1], the CLint micr is 142 µL/min/mg, the t1/2 was 4.9 min and the CLint is 134.1 mL/min/kg.
On to `CC(C)[C@H](NC(=O)c1nn(CCCCCF)c2ccccc12)C(N)=O` [Compound 5F-AB-PINACA], for which, in data set [1], the CLint micr is 19 µL/min/mg, the t1/2 is given as 35.9 min and the CLint is 18 mL/min/kg.
Consider `NC(=O)[C@H](Cc1ccccc1)NC(=O)c1cn(CCCCCF)c2ccccc12` [Compound 5F-APP-PICA], for which, in data set [1], the CLint micr is 46 µL/min/mg and the t1/2 is 15.1 min.
Regarding `CCCCCn1cc(C(=O)NC(C)(C)c2ccccc2)c2ccccc21` [Cumyl-PICA, 1-pentyl-N-(2-phenylpropan-2-yl)-1H-indole-3-carboxamide], in data set [1], the CLint micr was 120 µL/min/mg and the t1/2 is recorded as 5.92 min.
Consider `O=C(Oc1cccc2ccccc12)c1cn(Cc2ccc(F)cc2)c2ccccc12` [FDU-PB-22], for which, in data set [1], the CLint micr was 56 µL/min/mg, the t1/2 is 12.4 min and the CLint was 52.7 mL/min/kg.
Take `O=C(Oc1cccc2cccnc12)c1cn(Cc2ccc(F)cc2)c2ccccc12` [FUB-PB-22]: in data set [1], the CLint micr was 60 µL/min/mg, the t1/2 is listed as 11.5 min and the CLint is 57.1 mL/min/kg.
Regarding `CCCCCn1nc(C(=O)Nc2cccc3ccccc23)c2ccccc21` [MN-18], in data set [1], the CLint micr is 410 µL/min/mg, the t1/2 is on record as 1.71 min and the CLint was 469 mL/min/kg.
As for `O=C(Oc1cccc2ccccc12)c1cn(CCCCCF)c2ccccc12` [NM-2201], in data set [1], the CLint micr was 88 µL/min/mg, the t1/2 is given as 8.0 min and the CLint was 81.6 mL/min/kg.
`CCCCCn1cc(C(=O)Nc2cccc3ccccc23)c2ccccc21` [NNEI]: in data set [1], the CLint micr was 300 µL/min/mg, the t1/2 is given as 2.29 min and the CLint is 350 mL/min/kg.
With `O=C(NC12CC3CC(CC(C3)C1)C2)c1cn(CCCCCF)c2ccccc12` [STS-135, N-(adamantan-1-yl)-1-(5-fluoropentyl)-1H-indole-3-carboxamide], in data set [1], the CLint micr was 222 µL/min/mg, the t1/2 was 3.1 min and the CLint was 209 mL/min/kg.
Take `CCCCCn1nc(C(=O)c2cccc3ccccc23)c2ccccc21` [THJ-018]: in data set [1], the CLint micr was 36 µL/min/mg, the t1/2 was 19.2 min and the CLint was 34.2 mL/min/kg.
Turning to `O=C(c1cccc2ccccc12)c1nn(CCCCCF)c2ccccc12` [THJ-2201], in data set [1], the CLint micr was 64 µL/min/mg, the t1/2 is on record as 10.8 min and the CLint was 60.8 mL/min/kg.
As to `COC(=O)C1=C(C)NC(C)=C(C(=O)OCCN(C)Cc2ccccc2)C1c1cccc([N+](=O)[O-])c1` (centres unmarked) [nicardipine, reference compound], the fraction unbound at 5 h, 10 µg mL^−1 in data set [4] is 0.023.
